Test results taken from ChEMBL document CHEMBL5338746, “New Generation of sGC Stimulators: Discovery of Imidazo[1,2-a]pyridine Carboxamide BAY 1165747 (BAY-747), a Long-Acting Soluble Guanylate Cyclase Stimulator for the Treatment of Resistant Hypertension” (J Med Chem, 2023).
In brackets after ≈: the same amount, converted by molar mass. Activity calls are given as the source filed them. The calls are words filed in the database; no cut-off is given here.

Legend:
[1] = Metabolic stability in rat hepatocytes assessed as clearance measured upto 90 mins by LC-MS/MS analysis; format: ADME, cell-based, Hepatocyte
[2] = biological target: Soluble guanylate cyclase alpha1/beta1 complex (Rattus norvegicus) (UniProt P19686+P20595); experiment: Stimulation of recombinant rat sGC alpha1/beta1 expressed in CHO cells assessed as formation of cGMP from GTP by measuring concentration for >3-fold increase in the basal luminescence value by luminescence based analysis; format: cell-based; settings: filed as activator
Rattus norvegicus [3] = experiment: Antihypertensive activity in spontaneous hypertensive Wistar rat model assessed as reduction in blood pressure at 10 mg/kg, po measured after 12 hrs by radiotelemetry analysis; format: functional; parameters: scale not given: the % may be the effect or the level left
Rattus norvegicus [4] = experiment: Hypotensive effect in conscious normotensive Wistar rat assessed as reduction in arterial blood pressure at 10 mg/kg, po administered for 21 days by tail-cuff method relative to control; format: functional; parameters: scale not given: the % may be the effect or the level left; settings: time 21 day
Rattus norvegicus [5] = experiment: Hypotensive effect in conscious normotensive Wistar rat assessed as reduction in arterial blood pressure administered orally for 21 days by tail-cuff method; format: functional, organism-based; settings: dose 0.3-1 mg/kg, route po, time 21.0 day
Rattus norvegicus [6] = experiment: Antihypertensive activity in spontaneous hypertensive Wistar rat assessed as decrease in systolic blood pressure at 0.3 mg/kg, iv administered as bolus injection measured for 21 days by tail-cuff method; format: functional; settings: time 21 day
Rattus norvegicus [7] = experiment: Antihypertensive activity in conscious normotensive Wistar rat model assessed as increase in heart rate at 3 mg/kg, po measured after 14 hrs by radiotelemetry; format: functional, organism-based
Rattus norvegicus [8] = experiment: Antihypertensive activity in spontaneous hypertensive Wistar rat assessed as decrease in systolic blood pressure iv administered as bolus injection measured for 21 days by tail-cuff method; format: functional, organism-based; settings: dose 0.3-3 mg/kg, time 21.0 day
Rattus norvegicus [9] = experiment: Antihypertensive activity in spontaneous hypertensive Wistar rat assessed as decrease in systolic blood pressure at 3 mg/kg, iv administered as bolus injection measured for 21 days by tail-cuff method; format: functional; settings: time 21 day
Aorta = experiment: Vasorelaxant activity in New Zealand White rabbits aortic rings assessed as reduction in phenylephrine-induced contraction measured after 30 mins; format: functional, tissue-based; settings: Oryctolagus cuniculus, 0.5 h
Rattus norvegicus [10] = experiment: Antihypertensive activity in spontaneous hypertensive Wistar rat model assessed as reduction in blood pressure at 3 mg/kg, po measured after 12 hrs by radiotelemetry analysis; format: functional, organism-based
Rattus norvegicus [11] = experiment: Antihypertensive activity in conscious normotensive Wistar rat model assessed as increase in heart rate at 10 mg/kg, po measured after 14 hrs by radiotelemetry; format: functional, organism-based
Rattus norvegicus [12] = experiment: Hypotensive effect in conscious normotensive Wistar rat assessed as reduction in arterial blood pressure at 3 mg/kg, po administered for 21 days by tail-cuff method relative to control; format: functional; parameters: scale not given: the % may be the effect or the level left; settings: time 21 day
Rattus norvegicus [13] = experiment: Antihypertensive activity in spontaneous hypertensive Wistar rat assessed as decrease in systolic blood pressure at 1 mg/kg, iv administered as bolus injection measured for 21 days by tail-cuff method; format: functional; settings: time 21 day
Rattus norvegicus [14] = experiment: Antihypertensive activity in spontaneous hypertensive Wistar rat model assessed as reduction in blood pressure po administered bolus injection by radiotelemetry analysis; format: functional, organism-based; settings: dose 0.3 mg/kg
[15] = Oral bioavailability in Wistar rat at 1 mg/kg by LC-MS/MS analysis; format: ADME, organism-based; settings: in vivo
[16] = Half life in Wistar rat at 0.3 mg/kg, iv administered as infusion by LC-MS/MS analysis; format: ADME, organism-based; settings: in vivo
[17] = Solubility of compound in PBS at pH 6.5 measured for 24 hrs by LC-MS/MS analysis; format: physicochemical
[18] = Apparent permeability across apical to basolateral side in human Caco-2 cells incubated for 2 hrs by LC-MS/MS analysis; format: ADME, cell-based
[19] = Efflux ratio of apparent permeability basolateral to apical side over apical to basolateral side in human Caco-2 cells incubated for 2 hrs by LC-MS/MS analysis; format: ADME, cell-based
[20] = Volume of distribution at steady state in Wistar rat at 0.3 mg/kg, iv administered as infusion by LC-MS/MS analysis; format: ADME, organism-based; settings: in vivo, read-out: Vdss
[21] = Fraction unbound in po or iv dosed Wistar rat; format: ADME, organism-based; settings: in vivo
[22] = Blood clearance in Wistar rat at 0.3 mg/kg, iv administered as infusion incubated for 20 mins by HR LC-MS/MS analysis; format: ADME, organism-based; settings: whole blood

Compound CCCC[C@H](CO)NC(=O)c1c(C)nc2c(OCc3c(F)cccc3F)cc(F)cn12 has a CLhep predicted [1] of 51.7 mL/min/kg and an MEC [2] of 0.03 µM.

With Cc1nc2c(OCc3c(F)cccc3F)cccn2c1C(=O)NC(CN)c1ccc(F)c(F)c1 (single isomer, unassigned; enantiomer B) the Activity (Rattus norvegicus [3]) was 20%, the Activity (Rattus norvegicus [4]) was 10% and the Activity (Rattus norvegicus [5]) was “Dose-Dependent Effect”. For the same compound, the Activity (Rattus norvegicus [6]) was -12 mmHg, the Activity (Rattus norvegicus [7]) was “Active” and the Activity (Rattus norvegicus [8]) was “Dose-Dependent Effect”. The Activity (Rattus norvegicus [9]) was -96 mmHg, the IC50 (Aorta) was 625 nM and the Activity (Rattus norvegicus [10]) was “Active”. The Activity (Rattus norvegicus [11]) was “Active”, the Activity (Rattus norvegicus [12]) was 8% and the Activity (Rattus norvegicus [13]) was -38 mmHg. For the same compound, the Activity (Rattus norvegicus [14]) was “Dose-Dependent Effect”.

CCCC[C@H](CO)NC(=O)c1c(C)nc2c(OCc3c(F)cccc3F)cccn12 showed a bioavailability [15] of 65%, a half-life [16] of 48 min and a solubility at 24 h [17] of 3 µg/mL (≈ 7.19 µM). It also gave a Papp A→B at 2 h [18] of 41.3 ×10⁻⁶ cm/s, an efflux ratio at 2 h [19] of 0.6 and a Vd [20] of 0.9 L/kg. For the same compound, the fraction unbound [21] was 0.049, the clearance at […] [22] was 26.7 mL/min/kg and the CLhep predicted [1] was 33.3 mL/min/kg. It also gave an MEC [2] of 0.05 µM.

Work on CCCC[C@H](CO)NC(=O)c1cnc2c(OCc3c(F)cccc3F)cccn12 yielded a CLhep predicted [1] of 13.3 mL/min/kg and an MEC [2] of 0.3 µM.

For CCCC[C@H](CO)NC(=O)c1c(C)nc2c(OCc3c(F)cccc3F)cc(C)cn12, the CLhep predicted [1] was 56.7 mL/min/kg and the MEC [2] was 0.01 µM.

For CCCC[C@H](CO)NC(=O)c1c(C)nc2c(OCc3cccc(F)c3F)cccn12, the CLhep predicted [1] was 25 mL/min/kg and the MEC [2] was 0.3 µM.

For CCCC[C@H](CO)NC(=O)c1c(C)nc2c(OCc3c(F)cc(F)cc3F)cccn12, the CLhep predicted [1] was 26.7 mL/min/kg and the MEC [2] was 0.1 µM.

Compound CCCC[C@H](CO)NC(=O)c1c(C)nc2c(OCc3c(C)cccc3C)cccn12 has a CLhep predicted [1] of 43.3 mL/min/kg and an MEC [2] of 3 µM.
